The record followed here is publication PMC4385514 (Chemical biology & drug design, 2014).

Molecules are shown by their SMILES. Where a name gives a salt, the structure may show the parent alone.

For assay [1], the system named is Bloodstream forms of Trypanosoma brucei brucei strain 427. Put plainly: Trypanosome cell culture assay. The assay is classed as cell-based. The settings on record: 48 h, read-out: T brucei cell (EC50, μM).
The target in another assay is T1, TbrPDEB1 (Trypanosoma brucei, UniProt Q8WQX9).
T1 sequence (Q8WQX9 1-930): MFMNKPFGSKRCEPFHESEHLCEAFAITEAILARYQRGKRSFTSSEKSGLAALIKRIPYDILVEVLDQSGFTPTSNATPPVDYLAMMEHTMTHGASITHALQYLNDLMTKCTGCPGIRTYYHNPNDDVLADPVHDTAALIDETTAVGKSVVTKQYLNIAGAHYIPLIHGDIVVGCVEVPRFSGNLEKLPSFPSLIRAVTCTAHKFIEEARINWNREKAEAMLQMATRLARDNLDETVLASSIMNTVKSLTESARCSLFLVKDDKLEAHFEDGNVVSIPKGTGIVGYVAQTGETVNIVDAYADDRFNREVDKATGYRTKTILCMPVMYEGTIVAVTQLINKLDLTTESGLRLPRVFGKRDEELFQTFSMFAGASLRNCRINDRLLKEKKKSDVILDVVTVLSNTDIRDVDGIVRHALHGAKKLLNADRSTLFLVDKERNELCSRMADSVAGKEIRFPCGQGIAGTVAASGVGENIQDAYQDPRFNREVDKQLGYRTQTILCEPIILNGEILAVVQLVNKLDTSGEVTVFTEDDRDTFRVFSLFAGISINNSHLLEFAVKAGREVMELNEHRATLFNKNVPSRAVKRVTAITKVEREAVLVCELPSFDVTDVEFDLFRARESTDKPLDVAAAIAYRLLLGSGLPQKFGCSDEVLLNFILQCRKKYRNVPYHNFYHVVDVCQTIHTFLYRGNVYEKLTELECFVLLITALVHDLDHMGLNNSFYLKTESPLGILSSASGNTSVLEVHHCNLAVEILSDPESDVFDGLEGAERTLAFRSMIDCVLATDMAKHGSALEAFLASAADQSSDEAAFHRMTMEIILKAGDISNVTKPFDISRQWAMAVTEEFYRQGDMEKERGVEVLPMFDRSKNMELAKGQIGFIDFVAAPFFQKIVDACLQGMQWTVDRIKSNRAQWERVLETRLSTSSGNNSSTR
Kind of assay: TbrPDEB1 biochemical assay. Conditions: for inhibition at 10 µM: read-out: TbrPDEB1 (% inh); for fold improvement of TbrPDEB1 activity over 3: relative to compound 3.

Take `COC(=O)c1cccc(S(=O)(=O)c2cc(C)c3ncc(C(N)=O)c(Nc4cccc(OC)c4)c3c2)c1` [Compound 10a, methyl 3-(3-carbamoyl-4-(3-methoxyphenylamino)-8-methylquinolin-6-ylsulfonyl)benzoate]: the EC50 in assay [1] is 7.3 ± 0.97 µM. On TbrPDEB1, the inhibition at 10 µM amounted to 70 ± 7.9% and the “fold improvement of TbrPDEB1 activity over 3” value is “approximately 8 fold”.
Consider `COc1cccc(Nc2c(C(N)=O)cnc3c(C)cc(Sc4ccccc4)cc23)c1` [Compound 9b, 4-((3-methoxyphenyl)amino)-8-methyl-6-(phenylthio)quinoline-3-carboxamide], for which the inhibition at 10 µM at TbrPDEB1 came out at 10%.
Regarding `COC(=O)c1cccc(Sc2cc(C)c3ncc(C(N)=O)c(Nc4cccc(OC)c4)c3c2)c1` [Compound 9a, methyl 3-(3-carbamoyl-4-(3-methoxyphenylamino)-8-methylquinolin-6-ylthio)benzoate], at TbrPDEB1, the inhibition at 10 µM turned out to be 12 ± 6.1%.
Same read-out and setting: in the case of `COc1cccc(Nc2c(C(=O)N(C)C)cnc3c(C)cc(-c4ccc5cnn(C)c5c4)cc23)c1` [Compound 27b, 4-((3-methoxyphenyl)amino)-N,N,8-trimethyl-6-(1-methyl-1H-indazol-6-yl)quinoline-3-carboxamide, formic acid salt] it was 22 ± 3.8%; in that of `COc1cccc(Nc2c(C(N)=O)cnc3c(C)cc(S(=O)(=O)c4ccccc4)cc23)c1` [Compound 10b, 4-((3-methoxyphenyl)amino)-8-methyl-6-(phenylsulfonyl)quinoline-3-carboxamide], 21 ± 16%.
On to `COC(=O)c1cccc(-c2cc(C)c3ncc(C(N)=O)c(-c4cccc(C(=O)OC)c4)c3c2)c1` [Compound 21a, dimethyl 3,3′-(3-carbamoyl-8-methylquinoline-4,6-diyl)dibenzoate], for which, at TbrPDEB1, the inhibition at 10 µM amounted to 41 ± 5.8%.
For the molecule `CNC(=O)c1cnc2c(C)cc(-c3ccc4cnn(C)c4c3)cc2c1Nc1cccc(OC)c1` [Compound 27a, 4-((3-methoxyphenyl)amino)-N,8-dimethyl-6-(1-methyl-1H-indazol-6-yl)quinoline-3-carboxamide], at TbrPDEB1, the inhibition at 10 µM came to 34 ± 11%.
Regarding `COc1cccc(Nc2c(C(N)=O)cnc3c(C)cc(S(=O)(=O)c4cccc(C(N)=O)c4)cc23)c1` [Compound 12a, 6-(3-carbamoylphenylsulfonyl)-4-(3-methoxyphenylamino)-8-methylquinoline-3-carboxamide], the inhibition at 10 µM at TbrPDEB1 was 64 ± 7%.
Turning to `COc1cccc(Nc2c(C(N)=O)cnc3c(C)cc(-c4cc(C(=O)O)cc(C(=O)O)c4)cc23)c1` [Compound 18a, 5-(3-carbamoyl-4-((3-methoxyphenyl)amino)-8-methylquinolin-6-yl)isophthalic acid], on TbrPDEB1, the inhibition at 10 µM came to 10 ± 5.3%.
As to `CNC(=O)c1cccc(S(=O)(=O)c2cc(C)c3ncc(C(N)=O)c(Nc4cccc(OC)c4)c3c2)c1` [Compound 12b, 4-(3-methoxyphenylamino)-8-methyl-6-(3-(methylcarbamoyl)phenylsulfonyl)quinoline-3-carboxamide], the inhibition at 10 µM at TbrPDEB1 amounted to 66 ± 6.1%.
Regarding `COc1cccc(Nc2c(C(N)=O)cnc3c(C)cc(S(=O)(=O)c4cccc(C(=O)N(C)C)c4)cc23)c1` [Compound 3, GSK-256066, reference compound], in assay [1], the 50% effective concentration (EC50) was determined as 7.8 ± 2.5 µM. The inhibition at 10 µM at TbrPDEB1 was 51 ± 3.9%.
`COC(=O)c1cccc(-c2cc(C)c3ncc(C(N)=O)cc3c2)c1` [Compound 21b, methyl 3-(3-carbamoyl-8-methylquinolin-6-yl)benzoate]: the inhibition at 10 µM on TbrPDEB1 worked out at 0%.
In the case of `COC(=O)c1cccc(Nc2cc(C)c3ncc(C(N)=O)c(Nc4cccc(OC)c4)c3c2)c1` [Compound 13, methyl 3-(3-carbamoyl-4-(3-methoxyphenylamino)-8-methylquinolin-6-ylamino)benzoate], the inhibition at 10 µM at TbrPDEB1 came to 84 ± 7.7%.
Consider `COC(=O)c1cc(C(=O)O)cc(-c2cc(C)c3ncc(C(N)=O)c(Nc4cccc(OC)c4)c3c2)c1` [Compound 18b, 3-(3-carbamoyl-4-((3-methoxyphenyl)amino)-8-methylquinolin-6-yl)-5-(methoxycarbonyl)benzoic acid], for which the inhibition at 10 µM at TbrPDEB1 amounted to 31 ± 14%.
In the case of `Cc1cc(-c2cccc(-c3ncco3)c2)cc2c(NC3CCCC3)c(C(N)=O)cnc12` [Compound 28, 4-(cyclopentylamino)-8-methyl-6-(3-(oxazol-2-yl)phenyl)quinoline-3-carboxamide], the inhibition at 10 µM on TbrPDEB1 stood at 76 ± 2.2%.
Consider `COc1cccc(Nc2c(C(N)=O)cnc3c(C)cc(S(=O)(=O)c4cccc(C(=O)O)c4)cc23)c1` [Compound 11, 3-(3-carbamoyl-4-(3-methoxyphenylamino)-8-methylquinolin-6-ylsulfonyl)benzoic acid], for which, at TbrPDEB1, the inhibition at 10 µM was determined as 82 ± 10% and the “fold improvement of TbrPDEB1 activity over 3” value is “approximately 8 fold”.

As a reminder, the EC50 is the concentration at which the effect is half-maximal.
